The source of these data is patent publication US20250002526A1, “PHARMACEUTICAL COMPOSITION HAVING ANTI-CANCER IMMUNOSTIMULATING EFFECT AND/OR IMMUNE CHECKPOINT INHIBITION POTENTIATING EFFECT” (KYUSHU UNIVERSITY, NATIONAL UNIVERSITY CORPORATION, priority 2021, published 2025).

Assay [1] relates to SULT2B1b-mediated CS production in E0771-SULT cells. Nature of the assay: CS production inhibitory effect in E0771-SULT cells (LC/MS/MS quantification of CS). The class given is cell-based, mouse. Particulars: Mus musculus; for activity at 10 µM: relative to control (100%); for activity at 20 µM: relative to control without compound (100%); for IC50: read-out: IC50 value (CS production); for activity at 1 µM: compound groups B-D, read-out: CS production % activity at 1 μM. How it is done: CS in each human cancer tissue sample was quantified by a method described in NPL 2. To monitor the amounts of CS and/or oxysterol generated in E0771, 3LL, EG.7-OVA, and MC38 cells irrespective of the presence or absence of SULT2B1b expression, cells of each type were seeded in a 6-well plate at 5×10^5 cells/well, and the culture supernatant and cell pellet were collected after 24 hours. Subsequently, deuterium-labeled internal standard (IS) compounds (d7-CS [[…]] and d6-25-hydroxycholesterol) were added to fractions of the culture supernatant and cell pellet, each of which was subjected to extraction with 1 mL of extraction solvent (methanol/chloroform/water=5:2:2 [v/v/v]) to extract CS and oxysterol from the culture supernatant or cell pellet.
Each sample was vigorously mixed with a vortex for 1 minute, and then ultrasonicated for 5 minutes. Thereafter, the sample was centrifuged at 16,000×g and 4° C. for 5 minutes, and the supernatant (700 μl) was collected in a clean tube. Into this, 235 μl of chloroform and 155 μl of water were added and mixed, and the resultant was then subjected to vortexing followed by centrifugation to separate into an aqueous layer and an organic layer. Subsequently, 200 μl of the lowermost layer was dried under a nitrogen flow.
The dried sample was dissolved in 50 μl of methanol, and CS and oxysterol therein were quantified by liquid chromatography-tandem mass spectrometry (LC/MS/MS) with a triple quadrupole mass spectrometer (LCMS-8060; Shimadzu Corporation) equipped with an electrospray ionization (ESI) ion source in a multiple reaction monitoring (MRM) mode.
• Column: Inertsil ODS-4 (2.1×150 mm; particle size: 3 μm; GL Sciences Inc.) • Column temperature: 40° C. • Flow rate: 0.3 ml/min • Mobile phase: (A) water/acetonitrile (1:2, v/v) containing 5 mM ammonium acetate (B) Methanol/Isopropanol (1:19, v/v) Containing 5 mM Ammonium Acetate • Gradient curve: 0 min→22 min: (B) 0%→100%, • 22 min→27 min: (B) 100%, • 27 min→27.1 min: (B) 100%→0%, • 27.1 min→30 min: (B) 0% • Injection volume: 5 μl • Mass spectrometry mode: positive and negative ion modes • Electrospray voltage: 4 kV in positive ion mode, −3.5 kV in negative ion mode • Nebulizer gas flow rate: 3.0 L/min • Drying gas flow rate: 10.0 L/min • Desolvation temperature: 250° C. • Heat block temperature: 400° C. • Detector voltage: 2.16 kV • Used were MRM mode and 2 msec of dwell time per channel.
Absolute CS and oxysterol contents were calculated from calibration curves. MRM calibration curves were prepared with chromatographic peak areas for the analytes relative to peak areas for internal standards through three times of analysis for standard solutions.
The CS production effects of test compounds (compounds 1 to 19, 21, 23, 25, and 27 to 32) were evaluated with the mouse breast cancer cell line E0771 expressing SULT2B1b (E0771-SULT cells).
Specifically, as in the above description in experimental procedure (12), E0771-SULT cells were seeded in a 6-well plate at a proportion of 5×10^5 cells/well, and cultured in the presence or absence (control) of each test compound for 24 hours. After culturing, CS generated in E0771-SULT cells was quantified by LC/MS/MS according to the description in experimental procedure (12). The CS production capacity (% activity) of cells cultured in the presence of each test compound was evaluated from the percentage relative to the CS production level (control) (100%) in E0771-SULT cells cultured in the absence of the test compound, and the CS production inhibitory effect of the test compound was evaluated.

In assay [2] the target is T1, recombinant human SULT2B1b protein (Homo sapiens, UniProt O00204).
T1 sequence (O00204 1-365): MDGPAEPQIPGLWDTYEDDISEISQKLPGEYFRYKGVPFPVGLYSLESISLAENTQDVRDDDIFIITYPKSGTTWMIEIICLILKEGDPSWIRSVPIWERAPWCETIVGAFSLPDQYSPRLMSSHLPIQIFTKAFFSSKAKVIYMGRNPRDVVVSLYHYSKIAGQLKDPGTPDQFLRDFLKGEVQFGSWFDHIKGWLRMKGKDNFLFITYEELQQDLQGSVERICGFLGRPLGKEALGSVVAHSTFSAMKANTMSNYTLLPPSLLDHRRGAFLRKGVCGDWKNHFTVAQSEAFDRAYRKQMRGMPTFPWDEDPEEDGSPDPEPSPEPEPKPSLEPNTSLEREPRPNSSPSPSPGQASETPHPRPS
Briefly: SULT assay (in vitro SULT2B1b enzymatic activity measurement). The class given is biochemical. As to conditions: test compound 200 μM; relative to DMSO control (100%); read-out: in vitro SULT2B1b assay % activity at 200 μM. How it is done:
For screening for a SULT2B1b inhibitor, enzymatic activity measurement for SULT2B1b was carried out by a method described in a previous report (NPL 2) with slight modifications.
The reaction solution (50 μl) was composed of 1 to 5 μg of recombinant human SULT2B1b protein, 10 μM [^3H]cholesterol (approximately 4,000 dpm/pmol), 10 mM Tris-HCl (pH 7.5, containing 5 mM MgCl2) containing 0.1 mM 3′-phosphoadenosine 5′-phosphosulfate (PAPS), 0.2 mM 2-hydroxypropyl-β-cyclodextrin, and 5% (v/v) ethanol. Recombinant human SULT2B1b protein was pre-incubated with 1 μl of a test compound (final concentration: 40 or 200 μM) or DMSO (control) at room temperature for 15 minutes, 2 mM PAPS (2.5 μl) was then added to initiate reaction, the resultant was reacted at 37° C. for 15 minutes, and 0.8 ml of ethanol was added to terminate the reaction.
The solution after the reaction was subjected to thin-layer chromatography (TLC) for separation, and then to a liquid scintillation counter to quantify radiolabeled CS.
From the percentage to the amount ([…]) of radiolabeled CS generated through reaction in the absence of the test compound (DMSO) (control), the SULT2B1b activity (% activity) of SULT2B1b protein in the presence of the test compound was evaluated, and the effect of the test compound to inhibit SULT2B1b-mediated CS production (CS production inhibitory effect) was evaluated.
In enzyme assay, SULT assay was performed with use of cholenoic acid as a compound to be tested at different cholesterol and PAPS concentrations (wherein 0.5 to 1 μg of recombinant human SULT2B1b protein was used, the preincubation time and reaction time were each 10 minutes), and the results were fitted to the Michaelis-Menten equation by using Prism 9 (GraphPad Software, Inc.) to perform enzyme kinetic analysis for the inhibition by cholenoic acid.
SULT assay was performed for the compounds as test compounds by the method described in (14) of “II. Experimental procedure” in Experiment Example 1 to evaluate the SULT2B1b inhibitory effects of the compounds.

[3] abbreviates: 24 h, read-out: CS production % activity at 10 μM, E0771-SULT cells, 24 hours, test compound 10 μM (Table 1).
Setting [4] is: 24 h, read-out: CS production % activity at 10 μM, E0771-SULT cells, 24 hours, third concentration column of Table 1, head again printed 10 μM.
The mark [5] stands for this setting: 24 h, read-out: CS production % activity at 20 μM, E0771-SULT cells, 24 hours, test compound 20 μM.

Counter-ions that a name gives are not always drawn. Like-named read-outs stand apart in the source and are kept apart here.

With `C[C@H](CCC(=O)N1CCOCC1)[C@H]1CC[C@H]2[C@@H]3CC=C4C[C@H](N=[N+]=[N-])CC[C@]4(C)[C@H]3CC[C@]12C` [Compound 12, (R)-4-((3R,8S,9S,10R,13R,14S,17R)-3-azido-10,13-dimethyl-2,3,4,7,8,9,10,11,12,13,14,15,16,17-tetradecahydro-1H-cyclopenta[a]phenanthren-17-yl)-1-morpholinopentan-1-one], the activity at 10 µM in assay [1] (setting [3]) stood at 98.4%. For the same compound, the activity at 200 µM in assay [2] was determined as 8.3%.
In general, IC50 refers to the point on the concentration scale where inhibition reaches its midpoint. For the compound `C[C@H](CCC(=O)N(Cc1ccccc1)Cc1ccccc1)[C@H]1CC[C@H]2[C@@H]3CC=C4C[C@@H](OC(=O)C(F)(F)F)CC[C@]4(C)[C@H]3CC[C@]12C` [Compound 7, (3S,8S,9S,10R,13R,14S,17R)-17-((R)-5-(dibenzylamino)-5-oxopentan-2-yl)-10,13-dimethyl-2,3,4,7,8,9,10,11,12,13,14,15,16,17-tetradecahydro-1H-cyclopenta[a]phenanthren-3-yl 2,2,2-trifluoroacetate], the activity at 10 µM in assay [1] (setting [3]) is 59%; in assay [1] (setting [4]), 74.6%. The activity at 20 µM in assay [1] (setting [5]) was 57.8%. In addition, in assay [1], the half-inhibitory concentration (IC50) was 17.3 µM. For the same compound, in assay [2], the activity at 200 µM was 6.4%.
In the case of `CCCCNC(=O)CC[C@@H](C)[C@H]1CC[C@H]2[C@@H]3CC=C4C[C@@H](OC(=O)C(F)(F)F)CC[C@]4(C)[C@H]3CC[C@]12C` [Compound 8, (3S,8S,9S,10R,13R,14S,17R)-17-((R)-5-(butylamino)-5-oxopentan-2-yl)-10,13-dimethyl-2,3,4,7,8,9,10,11,12,13,14,15,16,17-tetradecahydro-1H-cyclopenta[a]phenanthren-3-yl 2,2,2-trifluoroacetate], the activity at 10 µM in assay [1] (setting [3]) was found to be 70.6%; in assay [1] (setting [4]), 83.6%. In assay [1] (setting [5]), the activity at 20 µM was 60.2%. Besides, in assay [1], the IC50 is 42.5 µM. Moreover, in assay [2], the activity at 200 µM was found to be 10.7%.
The matching figures for `CO[C@H]1CC[C@@]2(C)C(=CC[C@H]3[C@@H]4CC[C@H]([C@H](C)CCC(=O)O)[C@@]4(C)CC[C@@H]32)C1` [Compound 6, (R)-4-((3S,8S,9S,10R,13R,14S,17R)-3-methoxy-10,13-dimethyl-2,3,4,7,8,9,10,11,12,13,14,15,16,17-tetradecahydro-1H-cyclopenta[a]phenanthren-17-yl)pentanoic acid]: 74.5%, 80.7%, 70.3%, 32.4 µM and 22.9%.
With `C#CC1(OC(C)=O)CCC2C3CCC4=CC(=O)CCC4C3CCC21C` (centres unmarked) [Compound 30, 19-norethisterone-acetate, reference compound], the activity at 20 µM in assay [1] (E0771-SULT cells, 24 hours, test compound 20 μM, read-out: CS production % activity at 20 μM) amounted to 61.9%. Moreover, in assay [1] (E0771-SULT cells, 24 hours), the activity at 1 µM is 80.1%. For the same compound, the IC50 in assay [1] (E0771-SULT cells) stood at 34.3 µM.
`CC(=O)C1=CC[C@H]2[C@@H]3CC=C4CC(OC(=O)CCN5CCOCC5)CC[C@]4(C)[C@H]3CC[C@]12C` (stereo partly drawn) [Compound 15, (8R,9S,10R,13S,14S)-17-acetyl-10,13-dimethyl-2,3,4,7,8,9,10,11,12,13,14,15-dodecahydro-1H-cyclopenta[a]phenanthren-3-yl3-morpholinopropanoate]: the activity at 10 µM in assay [1] (setting [3]) turned out to be 40.9%; in assay [1] (setting [4]) it was 63%. The activity at 20 µM in assay [1] (setting [5]) stood at 38.9%. The concentration for half-maximal inhibition (IC50) in assay [1] came out at 7.8 µM.
Regarding `C#CCOCCNC(=O)CC[C@@H](C)[C@H]1CC[C@H]2[C@@H]3CC=C4C[C@@H](OS(=O)(=O)O)CC[C@]4(C)[C@H]3CC[C@]12C` [Compound 21, (3S,8S,9S,10R,13R,14S,17R)-10,13-dimethyl-17-((R)-5-oxo-5-((2-(prop-2-yn-1-yloxy)ethyl)amino)pentan-2-yl)-2,3,4,7,8,9,10,11,12,13,14,15,16,17-tetradecahydro-1H-cyclopenta[a]phenanthren-3-yl sulfate], the activity at 20 µM in assay [1] (setting [5]) is 85.7%.
Regarding `C[C@]12CCC(OC(=O)CCN3CCOCC3)CC1=CC[C@@H]1[C@@H]2CC[C@]2(C)C(=O)CC[C@@H]12` (stereo partly drawn) [Compound 28, (8R,9S,10R,13S,14S)-10,13-dimethyl-17-oxo-2,3,4,7,8,9,10,11,12,13,14,15,16,17-tetradecahydro-1H-cyclopenta[a]phenanthren-3-yl 3-morpholinopropanoate], the activity at 20 µM in assay [1] (24 h, E0771-SULT cells, 24 hours, test compound 20 μM, read-out: CS production % activity at 20 μM) came out at 42%. For the same compound, the activity at 1 µM in assay [1] (24 h, E0771-SULT cells, 24 hours) was found to be 37.8%. Besides, the IC50 in assay [1] (E0771-SULT cells) came out at 6.3 µM.
As for `CC(CCC(=O)N1CCSCC1)C1CCC2C3CC=C4CC(O)CCC4(C)C3CCC12C` [Compound 9, (R)-4-((3S,8S,9S,10R,13R,14S,17R)-3-hydroxy-10,13-dimethyl-2,3,4,7,8,9,10,11,12,13,14,15,16,17-tetradecahydro-1H-cyclopenta[a]phenanthren-17-yl)-1-thiomorpholinopentan-1-one], the activity at 20 µM in assay [1] (setting [5]) is 87.2%.
